Source: US8445539B2, “Alpha-aminoamide derivatives useful in the treatment of psychiatric disorders” (priority 2007, dated 2013)

Experiments:
NMDA receptor complex = test: Inhibition of NMDA receptor complex, whole cell patch clamp in cortical neurons; assay type: cell-based; settings: primary rat cortical neurons; holding -70 mV; NMDA 100 μM + glycine 10 μM; read-out: IC50 of NMDA-induced currents
Method: Cortical neurons were prepared from embryonic Wistar rats (E17-E19). A female rat at date 17-19 of pregnancy was anesthetized and sacrificed. The foetuses (n=4-5) were dissected and placed in ice-cold Hank's solution (Hank's solution (Life tech. 14170-088)+glucose 30%+Pen-Strep 100× (Life Tech. 15140-122) 100 U-100 μg/mL and Hepes-NaOH 5 mM).
The brain of the foetuses was cut in two halves, and each cortex was cut in smaller parts with a scissors, the pieces were transferred to a 15 mL centrifuge tube using a 5 mL pipette and washed twice with Hank's solution. […]
Cells were counted and diluted in Neurobasal medium to a concentration of 400000 cells per poly-D-lysine 5 μg/mL treated Petri dish. […]
Experiments on cortical neurons were carried out using standard whole cell patch clamp methods (Hamill et al., 1981. Pflügers Archly: European Journal of Physiology 391(2):85-100). Membrane currents were recorded and filtered at 5 kHz with an Axon Axopatch 200B amplifier and data digitized with an Axon Digidata 1322A (Axon Instruments, CA, USA). […]
Data were analyzed using Clampfit 9 (Axon Instruments, CA) and Origin 7.5 (Microcal Inc., Northampton, Mass., USA) software. Data points and results were expressed as arithmetic mean±S.E. […]

Dopamine D2S = Dopamine D2S (Homo sapiens, UniProt P14416); test: Dopamine receptor radioligand binding assay; settings: inhibition of specific binding
Dopamine D2S, sequence (P14416 1-414 isoform P14416-2): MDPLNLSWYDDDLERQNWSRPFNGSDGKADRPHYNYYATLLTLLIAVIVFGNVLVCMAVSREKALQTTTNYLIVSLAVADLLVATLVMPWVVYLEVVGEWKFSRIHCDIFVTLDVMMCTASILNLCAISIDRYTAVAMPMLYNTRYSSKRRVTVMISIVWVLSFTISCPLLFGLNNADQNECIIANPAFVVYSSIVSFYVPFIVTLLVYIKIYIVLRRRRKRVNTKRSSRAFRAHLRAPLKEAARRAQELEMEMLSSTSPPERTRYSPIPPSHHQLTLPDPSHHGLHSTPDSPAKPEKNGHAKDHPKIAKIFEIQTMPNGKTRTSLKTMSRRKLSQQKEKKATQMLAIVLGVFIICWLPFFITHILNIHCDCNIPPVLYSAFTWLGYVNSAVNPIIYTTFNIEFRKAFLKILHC
Method: (§1) The assays were performed, under standard conditions, as described in the following publications: Dearry A et al., Nature; 1990; 347: 72-76; Bunzow J R et al., Nature; 1988; 336: 783-787; Sokoloff P. et al., Nature; 1990; 347: 146-151; Van Tol H H M et al., Nature; 1991; 350: 610-614; Van Tol H H M et al., Nature; 1992; 358: 149-152; Sibley D R et al., Trend Pharmacol. Sci.; 1992; 13:61-69.
(§2) Biochemical assay results are presented as the percent inhibition of specific bindings at a single compound concentration. Responses are considered significant for binding activities >50%.

Dopamine D4.7 = test: Dopamine receptor radioligand binding assay; settings: inhibition of specific binding
Method: as §1, §2

Dopamine D4.2 = test: Dopamine receptor radioligand binding assay; settings: inhibition of specific binding
Method: as §1, §2

Dopamine D2L = Dopamine D2L (Homo sapiens, UniProt P14416); test: Dopamine receptor radioligand binding assay; settings: inhibition of specific binding
Dopamine D2L, sequence (P14416 whole entry): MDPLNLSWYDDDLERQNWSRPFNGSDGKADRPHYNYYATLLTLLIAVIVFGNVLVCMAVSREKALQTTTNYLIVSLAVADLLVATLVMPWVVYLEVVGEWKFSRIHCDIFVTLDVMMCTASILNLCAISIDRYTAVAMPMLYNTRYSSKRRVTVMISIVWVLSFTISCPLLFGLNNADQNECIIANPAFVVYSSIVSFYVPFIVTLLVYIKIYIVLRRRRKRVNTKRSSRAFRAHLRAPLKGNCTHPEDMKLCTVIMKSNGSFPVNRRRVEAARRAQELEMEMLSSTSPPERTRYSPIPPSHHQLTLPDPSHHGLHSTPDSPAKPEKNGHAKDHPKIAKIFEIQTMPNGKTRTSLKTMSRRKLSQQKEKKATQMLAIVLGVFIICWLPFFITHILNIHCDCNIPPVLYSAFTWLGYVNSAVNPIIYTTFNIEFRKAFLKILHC
Method: as §1, §2

Dopamine D1 = Dopamine D1 (Homo sapiens, UniProt P21728); test: Dopamine receptor radioligand binding assay; settings: inhibition of specific binding
Dopamine D1, sequence (P21728 whole entry): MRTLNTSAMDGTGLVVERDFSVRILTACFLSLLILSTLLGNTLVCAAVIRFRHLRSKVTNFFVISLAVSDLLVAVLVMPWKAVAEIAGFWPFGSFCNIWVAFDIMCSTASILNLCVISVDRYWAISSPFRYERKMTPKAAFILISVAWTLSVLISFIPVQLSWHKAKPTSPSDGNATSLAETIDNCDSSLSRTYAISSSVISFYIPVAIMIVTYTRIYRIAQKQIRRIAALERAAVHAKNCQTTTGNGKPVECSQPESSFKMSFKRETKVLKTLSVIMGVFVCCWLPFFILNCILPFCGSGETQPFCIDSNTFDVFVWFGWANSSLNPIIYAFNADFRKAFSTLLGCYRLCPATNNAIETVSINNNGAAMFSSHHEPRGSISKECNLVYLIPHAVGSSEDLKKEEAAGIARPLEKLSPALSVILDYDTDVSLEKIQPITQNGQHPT
Method: as §1, §2

Dopamine D4.4 = molecular target: T1, Dopamine D4.4 (Homo sapiens, UniProt P21917); test: Dopamine receptor radioligand binding assay; settings: inhibition of specific binding
T1 sequence (P21917 1-419): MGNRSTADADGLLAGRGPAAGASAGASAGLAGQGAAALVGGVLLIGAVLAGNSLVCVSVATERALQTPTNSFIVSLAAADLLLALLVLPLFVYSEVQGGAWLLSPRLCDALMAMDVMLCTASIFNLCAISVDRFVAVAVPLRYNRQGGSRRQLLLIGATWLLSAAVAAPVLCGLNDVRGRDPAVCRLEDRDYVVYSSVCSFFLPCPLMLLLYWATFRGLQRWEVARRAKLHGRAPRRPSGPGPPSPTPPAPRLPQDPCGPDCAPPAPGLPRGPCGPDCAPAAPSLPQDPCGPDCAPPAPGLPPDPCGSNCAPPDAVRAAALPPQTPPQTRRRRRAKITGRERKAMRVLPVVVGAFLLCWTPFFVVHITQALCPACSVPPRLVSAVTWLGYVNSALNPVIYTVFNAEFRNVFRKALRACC
Method: as §1, §2

Dopamine D5 = Dopamine D5 (Homo sapiens, UniProt P21918); test: Dopamine receptor radioligand binding assay; settings: inhibition of specific binding
Dopamine D5, sequence (P21918 whole entry): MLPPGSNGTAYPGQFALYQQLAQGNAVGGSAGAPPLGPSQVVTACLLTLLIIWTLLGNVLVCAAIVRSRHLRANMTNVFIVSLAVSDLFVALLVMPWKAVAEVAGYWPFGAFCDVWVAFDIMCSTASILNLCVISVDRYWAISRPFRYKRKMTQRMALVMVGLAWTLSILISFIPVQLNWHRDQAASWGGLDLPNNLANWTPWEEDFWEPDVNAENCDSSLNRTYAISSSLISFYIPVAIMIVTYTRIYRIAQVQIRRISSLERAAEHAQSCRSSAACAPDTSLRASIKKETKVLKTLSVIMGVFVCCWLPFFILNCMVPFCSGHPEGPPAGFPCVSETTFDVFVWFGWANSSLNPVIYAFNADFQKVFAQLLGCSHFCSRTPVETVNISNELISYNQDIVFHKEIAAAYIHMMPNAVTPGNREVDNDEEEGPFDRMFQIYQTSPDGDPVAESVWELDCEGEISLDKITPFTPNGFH
Method: as §1, §2

Dopamine D3 = Dopamine D3 (Homo sapiens, UniProt P35462); test: Dopamine receptor radioligand binding assay; settings: inhibition of specific binding
Dopamine D3, sequence (P35462 whole entry): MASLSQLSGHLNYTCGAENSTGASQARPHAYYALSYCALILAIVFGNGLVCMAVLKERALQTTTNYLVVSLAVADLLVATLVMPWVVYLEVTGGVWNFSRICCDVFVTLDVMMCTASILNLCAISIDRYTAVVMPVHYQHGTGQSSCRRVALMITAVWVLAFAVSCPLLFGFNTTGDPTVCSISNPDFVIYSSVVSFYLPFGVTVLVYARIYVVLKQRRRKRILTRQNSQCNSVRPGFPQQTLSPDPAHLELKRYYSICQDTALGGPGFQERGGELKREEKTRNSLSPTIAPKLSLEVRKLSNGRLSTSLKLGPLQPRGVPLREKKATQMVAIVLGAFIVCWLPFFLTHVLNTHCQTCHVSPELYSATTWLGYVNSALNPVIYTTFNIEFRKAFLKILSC
Method: as §1, §2

## C[C@H](NCc1ccc(OCc2ccccc2F)cc1)C(N)=O [Ralfinamide methanesulfonate, (S)-(+)-2-[4-(2-fluorobenzyloxy)benzylamino]propanamide]
NMDA receptor complex
  IC50: 7.3 µM
Dopamine D2S
  % Inhibition at 10 μm: no inhibition
Dopamine D4.7
  % Inhibition at 10 μm: no inhibition
Dopamine D4.2
  % Inhibition at 10 μm: 1%
Dopamine D2L
  % Inhibition at 10 μm: no inhibition
Dopamine D1
  % Inhibition at 10 μm: no inhibition
Dopamine D4.4
  % Inhibition at 10 μm: no inhibition
Dopamine D5
  % Inhibition at 10 μm: no inhibition
Dopamine D3
  % Inhibition at 10 μm: 7%
